The values that follow come from PubChem BioAssay (NCI).

SMILES strings stand for the structures.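 All cell lines were grown in 96-well plates and treated with compound for 48 hours. Definition used: TGI = concentration required for complete inhibition of growth.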

Test systems include K-562 leukemia; NCI-H522 lung; CAKI-1 renal; BT-549 breast; HCT-15 colon; RPMI-8226 leukemia; SK-MEL-28 melanoma; DU-145 prostate; SK-MEL-2 melanoma; OVCAR-4 ovarian.
Common to all, as to assay: inhibition of tumour cell growth, NCI panel, 48 h

Consider `Cn1ncc2c(Nc3cccc(Cl)c3)nc(Nc3cccc(Cl)c3)nc21`, for which the TGI was found to be 19.2 µM in the test with K-562 leukemia; 39.1 µM with NCI-H522 lung; 30.8 µM in the test on CAKI-1 renal; 59 µM in the test with BT-549 breast; 30.9 µM in the test on HCT-15 colon; 19.8 µM in the test on RPMI-8226 leukemia. Moreover, the TGI was 41.2 µM in the test on SK-MEL-28 melanoma, 40 µM in the test on DU-145 prostate, 41.7 µM in the test with SK-MEL-2 melanoma and 47.6 µM in the test with OVCAR-4 ovarian.
For the compound `COC(=O)C1=COC(OC2OC(CO)C(O)C(O)C2O)C2C3CN4CCc5c([nH]c6ccccc56)C4(CC12)O3` (configuration not stated), the TGI with K-562 leukemia, in the test on CAKI-1 renal, with BT-549 breast, with HCT-15 colon, with RPMI-8226 leukemia and with SK-MEL-28 melanoma was over 100 µM in each case. Further, the TGI in the test with DU-145 prostate, with SK-MEL-2 melanoma and in the test with OVCAR-4 ovarian was over 100 µM in each case.
As to `Cc1c(Cl)nc(Cl)nc1Cl`, the TGI with NCI-H522 lung came out at 0.118 µM; in the test on CAKI-1 renal, 0.695 µM; in the test with BT-549 breast, 10.2 µM; in the test on HCT-15 colon it was 1.25 µM; with SK-MEL-28 melanoma, 8.5 µM; with DU-145 prostate, 11.1 µM. In the test with OVCAR-4 ovarian, this compound yielded a TGI of 2.8 µM.
On to `Cc1[nH]c(=O)[nH]c(=O)c1/C=C/C(=O)NC(CO)CS(=O)Cc1ccccc1` (configuration not stated), for which the TGI in the test with K-562 leukemia, in the test with NCI-H522 lung, in the test on CAKI-1 renal, with HCT-15 colon, with RPMI-8226 leukemia and in the test on SK-MEL-28 melanoma was over 300 µM each time. The compound further gave a TGI with SK-MEL-2 melanoma of over 300 µM.
With `c1ccc(C(NC2=NCCO2)c2ccccc2)cc1`, the TGI with K-562 leukemia, in the test on NCI-H522 lung, with CAKI-1 renal, in the test with HCT-15 colon, in the test on RPMI-8226 leukemia and in the test with SK-MEL-28 melanoma was over 10 µM in each case. For the same compound, the TGI with DU-145 prostate, with SK-MEL-2 melanoma and in the test with OVCAR-4 ovarian was over 10 µM each time.
`CC(C)C(=O)CC(c1ccc(Cl)cc1)N1N=C(C(C)C)CC1c1ccc(Cl)cc1` (configuration not stated): the TGI was over 100 µM in the test on K-562 leukemia; over 100 µM in the test on NCI-H522 lung; over 94.9 µM in the test on CAKI-1 renal; over 100 µM with RPMI-8226 leukemia; over 100 µM with SK-MEL-28 melanoma; over 92.2 µM with SK-MEL-2 melanoma.
Regarding `C=CCN1C[C@H](C)N([C@@H](c2ccc(C(=O)N3CCCCC3)cc2)c2cccc(OC)c2)C[C@H]1C`, the TGI in the test on K-562 leukemia is 60.8 µM; in the test on NCI-H522 lung, 55 µM; in the test with CAKI-1 renal, over 100 µM; in the test on BT-549 breast it was over 100 µM; with HCT-15 colon it was over 100 µM; in the test on DU-145 prostate it was over 100 µM. Further, the TGI in the test on SK-MEL-2 melanoma is 60.3 µM; in the test on OVCAR-4 ovarian it was over 100 µM.
For the compound `Cn1ccc(C(=O)NCCN(CCNC(=O)c2ccn(C)c(=O)c2O)CCNC(=O)c2ccn(C)c(=O)c2O)c(O)c1=O`, the TGI with K-562 leukemia, in the test on NCI-H522 lung, with CAKI-1 renal, in the test on BT-549 breast, in the test on HCT-15 colon and in the test on RPMI-8226 leukemia was over 100 µM in each case. Besides, the TGI with SK-MEL-28 melanoma, in the test with DU-145 prostate, with SK-MEL-2 melanoma and in the test with OVCAR-4 ovarian was over 100 µM each time.
For `NNC(=O)CCSc1ccccc1`, the TGI with K-562 leukemia, in the test on NCI-H522 lung, in the test with CAKI-1 renal, with BT-549 breast, with HCT-15 colon and with RPMI-8226 leukemia was over 100 µM in each case. The TGI with SK-MEL-28 melanoma, in the test on DU-145 prostate, in the test on SK-MEL-2 melanoma and in the test with OVCAR-4 ovarian was over 100 µM each time.
Regarding `O=c1/c(=C/c2ccc([N+](=O)[O-])o2)sc2n1[C@@H](c1ccc(Cl)cc1)C=C(c1cc(F)c(Cl)cc1Cl)N=2`, the TGI is 36.9 µM in the test with K-562 leukemia; 49.2 µM in the test on NCI-H522 lung; over 100 µM in the test on CAKI-1 renal; 28.7 µM in the test with BT-549 breast; 26.7 µM with HCT-15 colon; 25.9 µM in the test on RPMI-8226 leukemia. Further, the TGI is over 100 µM in the test with SK-MEL-28 melanoma, 39.9 µM in the test with DU-145 prostate, 17.6 µM with SK-MEL-2 melanoma and 30.8 µM with OVCAR-4 ovarian.
For `CN(C)CCCSc1nc2c(c(=N)n1-c1ccccc1)c(=S)n(-c1ccccc1)c(=S)n2-c1ccccc1`, the TGI in the test on K-562 leukemia worked out at 3.81 µM; with NCI-H522 lung, 3.42 µM; in the test on CAKI-1 renal it was 3.16 µM; in the test on BT-549 breast, 3.38 µM; in the test on HCT-15 colon, 3.32 µM; in the test with RPMI-8226 leukemia, 1.84 µM. Moreover, the TGI came to 3.88 µM in the test on SK-MEL-28 melanoma, 3.04 µM with DU-145 prostate, 4.11 µM with SK-MEL-2 melanoma and 3.42 µM with OVCAR-4 ovarian.
Consider `COc1cc(/C=N\c2nc(-c3ccc(NS(=O)(=O)c4ccc(Cl)c(OC)c4)cc3)cs2)ccc1O`, for which the TGI with K-562 leukemia was over 100 µM; in the test with NCI-H522 lung, 60.9 µM; in the test with CAKI-1 renal it was over 100 µM; in the test with BT-549 breast, 83 µM; in the test on HCT-15 colon, over 100 µM; in the test on RPMI-8226 leukemia, 74.2 µM. In addition, the TGI in the test on SK-MEL-28 melanoma, in the test with DU-145 prostate, in the test with SK-MEL-2 melanoma and in the test on OVCAR-4 ovarian was over 100 µM in each case.
For the compound `COc1ccc(C(O)(c2ccccc2)c2nccc3ccccc23)cc1` (configuration not stated), the TGI with K-562 leukemia was over 100 µM; in the test on NCI-H522 lung, 30.7 µM; with CAKI-1 renal, over 100 µM; in the test on BT-549 breast, over 100 µM; in the test with HCT-15 colon it was over 100 µM; in the test on RPMI-8226 leukemia, over 100 µM. Further, the TGI in the test on SK-MEL-28 melanoma, with DU-145 prostate and in the test with OVCAR-4 ovarian was over 100 µM throughout.
As to `Cc1ccc(N=NC(=Nc2ccc(Cl)cc2)c2ccc(N(CCC#N)CCC#N)cc2)cc1`, the TGI in the test with K-562 leukemia is over 100 µM; in the test on NCI-H522 lung, 66 µM; with CAKI-1 renal it was over 100 µM; with BT-549 breast, over 100 µM; in the test with HCT-15 colon, over 100 µM; in the test with RPMI-8226 leukemia, over 100 µM. Further, the TGI with SK-MEL-28 melanoma, in the test with DU-145 prostate and in the test with OVCAR-4 ovarian was over 100 µM each time.
For `COc1ccc(-c2cc(-c3ccc(O)cc3O)c(C#N)c(=O)[nH]2)cc1`, the TGI in the test with K-562 leukemia was 77 µM; in the test with CAKI-1 renal, 64.1 µM; in the test with BT-549 breast, 55.9 µM; in the test on HCT-15 colon, over 100 µM; with RPMI-8226 leukemia it was 43.5 µM; in the test with SK-MEL-28 melanoma, 33.5 µM. Besides, the figures for the TGI with DU-145 prostate and in the test with OVCAR-4 ovarian were over 100 µM and 60 µM, respectively.
